Data reported in patent publication EP1863471B9, “USE OF ANGELIC ACID ESTERS AS AN ANTIPHLOGISTIC ACTIVE INGREDIENT AND ANTIPHLOGISTIC PREPARATIONS” (Miltitz Aromatics GmbH, priority 2005, dated 2006).
Where two headings read alike, the source gives them in different places.

Tests used:
[1] = system: Carrageenin-induzierten Rattenpfotenödem; assay: Carrageenin-induced rat paw oedema, oral administration of test substance; assay type: in vivo, Ratte; settings: for ED50: oral administration, calculated from dose-dependent percent inhibition of oedema development, own tests
Source text: Die antiinflammatorische Wirkung von Isobutylangelat wurde am Carrageenin-induzierten ([…]) Rattenpfotenödem getestet. Isobutylangelat wurde oral verabreicht.
Die Testbedingungen entsprachen den in der Literatur verwendeten, so dass Quervergleiche hergestellt werden konnten. (V. Jakovlev et al. in Journal of Medicinal Plant Research 35 (1979), 125-140).
Als Vergleichssubstanz in den eigenen Tests diente (-)-alpha-Bisabolol. Dosisabhängig wurde die prozentuale Hemmung der Ödementwichlung bestimmt. Daraus ließ sich der ED50 Wert errechnen.
Dosierungen von 100, 464, 1000 und 2150 mg Isobutylangelat/kg Körpergewicht wurden getestet. Die Ergebnisse wurden mit den für eine Kontrollgruppe (0,8 % Hydroxypropylmethylcellulose Gel) und zusätzlich den für die positive Kontrolle ((-)-alpha- Bisabolol) erhaltenen Werten verglichen.

[2] = system: Carrageenin-induzierten Rattenpfotenödem; settings: literature values from V. Jakovlev et al., Journal of Medicinal Plant Research 35 (1979), 125-140, corresponding test conditions, cited from earlier work

Compound | ED50 [2] [mg/kg] | also measured
C/C=C(/C)C(=O)OCC(C)C [Isobutylangelat] | – | ED50 [1]: 2310 mg/kg; minimal effective dose ([1]; oral, doses tested 100, 464, 1000 and 2150 mg/kg body weight, read-out: dosisabhängige antiinflammatorische Wirkung, beginnend bei): ≥ 100 mg/kg
CC(C)=CCC[C@@](C)(O)[C@H]1CC=C(C)CC1 [(+) alpha Bisabolol] | > 2000 | –
CC(C)=CCC[C@](C)(O)[C@@H]1CC=C(C)CC1 [Dragosantol] | > 3000 | –
CC1=CCC(C2(C)CCC(O)C(C)(C)O2)CC1 (stereo not drawn) [Bisabololoxid A] | 3164 | –
CC(C)=CCC[C@](C)(O)[C@@H]1CC=C(C)CC1 [(-)-alpha-Bisabolol] | – | ED50 ([2]; listed as (-) alpha Bisabolol): 1465 mg/kg; ED50 [1]: 1540 mg/kg
CC1=CC[C@@H]([C@]2(C)CCC(=O)C(C)(C)O2)CC1 [Bisabolonoxid] | > 2000 | –
CC1=CCC(C2(C)CCC(C(C)(C)O)O2)CC1 (stereo not drawn) [Bisabololoxid B] | > 2000 | –
